Results as given in the supplement of paper PMC12350171.

Tests used:
Streptococcus salivarius = experiment: IC25 growth inhibition; higher = less potent
Summary of the method: (§1)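 Monocultures grown overnight in mGAM were added to pre-reduced plates holding twofold drug dilutions, giving a starting OD578 of 0.01 and 1% DMSO (or water). Growth was followed anaerobically by hourly OD578 readings in a plate reader, with at least three biological replicates. The median growth-curve AUC per concentration was forced to be monotonic. IC25 was the lowest concentration with median AUC below 0.75, reported as a tested interval.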

Collinsella aerofaciens = experiment: IC25 growth inhibition; higher = less potent
Summary of the method: as §1

Vibrio cholerae = experiment: IC25 growth inhibition; higher = less potent
Summary of the method: as §1

Bacteroides fragilis NT = experiment: IC25 growth inhibition; higher = less potent
Summary of the method: as §1

Escherichia coli ED1a = experiment: IC25 growth inhibition; higher = less potent
Summary of the method: as §1

[1] = test system: Yersinia enterocolitica WA-314; experiment: IC25 growth inhibition; higher = less potent
Summary of the method: as §1

Bacteroides vulgatus = experiment: IC25 growth inhibition; higher = less potent
Summary of the method: as §1

[2] = test system: Streptococcus parasanguinis; experiment: IC25 growth inhibition; higher = less potent
Summary of the method: as §1

Dorea formicigenerans = experiment: IC25 growth inhibition; higher = less potent
Summary of the method: as §1

[3] = test system: Fusobacterium nucleatum subsp. Nucleatum; experiment: IC25 growth inhibition; higher = less potent
Summary of the method: as §1

Eubacterium rectale = experiment: IC25 growth inhibition; higher = less potent
Summary of the method: as §1

Parabacteroides merdae = experiment: IC25 growth inhibition; higher = less potent
Summary of the method: as §1

Clostridium perfringens = experiment: IC25 growth inhibition; higher = less potent
Summary of the method: as §1

Ruminococcus gnavus = experiment: IC25 growth inhibition; higher = less potent
Summary of the method: as §1

Clostridium bolteae = experiment: IC25 growth inhibition; higher = less potent
Summary of the method: as §1

Roseburia intestinalis = experiment: IC25 growth inhibition; higher = less potent
Summary of the method: as §1

Coprococcus comes = experiment: IC25 growth inhibition; higher = less potent
Summary of the method: as §1

Clostridium ramosum = experiment: IC25 growth inhibition; higher = less potent
Summary of the method: as §1

Shigella flexneri = experiment: IC25 growth inhibition; higher = less potent
Summary of the method: as §1

[4] = test system: Salmonella enterica typhimurium; experiment: IC25 growth inhibition; higher = less potent
Summary of the method: as §1

[5] = test system: Bacteroides thetaiotaomicron; experiment: IC25 growth inhibition; higher = less potent
Summary of the method: as §1

[6] = test system: Clostridium saccharolyticum; experiment: IC25 growth inhibition; higher = less potent
Summary of the method: as §1

Bacteroides uniformis = experiment: IC25 growth inhibition; higher = less potent
Summary of the method: as §1

[7] = test system: Yersinia pseudotuberculosis; experiment: IC25 growth inhibition; higher = less potent
Summary of the method: as §1

[8] = test system: Com21 synthetic gut community; experiment: community biomass OD578 after 24 h drug treatment relative to untreated (fraction of untreated control); higher = more community growth; details: community: Com21 (Com20 + E. coli ED1a)
Procedure: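 Com21 (Com20 plus E. coli ED1a) was treated with drug for 24 h under anaerobic conditions in mGAM. Community OD578 was then measured and normalised to untreated Com21; mean of 3 biological replicates.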

[9] = drug pretreatment concentration 5 µM
[10] = drug pretreatment concentration 10 µM
[11] = drug pretreatment concentration 20 µM
[12] = drug pretreatment concentration 40 µM
[13] = drug pretreatment concentration 80 µM
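Wherever IC25 growth inhibition is given: lowest concentration where monotonic median growth AUC falls below 0.75 of drug-free control.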

Row | Compound | IC25 growth inhibition (Streptococcus salivarius) [µM] | IC25 growth inhibition (Collinsella aerofaciens) [µM] | IC25 growth inhibition (Vibrio cholerae) [µM] | IC25 growth inhibition (Bacteroides fragilis NT) [µM] | IC25 growth inhibition (Escherichia coli ED1a) [µM] | IC25 growth inhibition [1] [µM] | IC25 growth inhibition (Bacteroides vulgatus) [µM] | IC25 growth inhibition [2] [µM] | IC25 growth inhibition (Dorea formicigenerans) [µM] | IC25 growth inhibition [3] [µM] | IC25 growth inhibition (Eubacterium rectale) [µM] | IC25 growth inhibition (Parabacteroides merdae) [µM] | IC25 growth inhibition (Clostridium perfringens) [µM] | IC25 growth inhibition (Ruminococcus gnavus) [µM] | IC25 growth inhibition (Clostridium bolteae) [µM] | IC25 growth inhibition (Roseburia intestinalis) [µM] | IC25 growth inhibition (Coprococcus comes) [µM] | IC25 growth inhibition (Clostridium ramosum) [µM] | IC25 growth inhibition (Shigella flexneri) [µM] | IC25 growth inhibition [4] [µM] | IC25 growth inhibition [5] [µM] | IC25 growth inhibition [6] [µM] | IC25 growth inhibition (Bacteroides uniformis) [µM] | IC25 growth inhibition [7] [µM] | community biomass OD578 ([8]; drug pretreatment concentration 2.5 µM) | community biomass OD578 [8, 9] | community biomass OD578 [8, 10] | community biomass OD578 [8, 11] | community biomass OD578 [8, 12] | community biomass OD578 [8, 13] | community biomass OD578 ([8]; drug pretreatment concentration 160 µM)
1 | C/C=C(/C(=C/C)c1ccc(O)cc1)c1ccc(O)cc1 [Dienestrol] | ≤ 40 | > 40 | ≤ 40 | ≤ 10 | > 40 | > 40 | ≤ 40 | > 40 | ≤ 10 | > 40 | ≤ 20 | ≤ 40 | ≤ 20 | ≤ 5 | > 40 | ≤ 40 | ≤ 10 | ≤ 40 | > 40 | > 40 | ≤ 20 | ≤ 40 | ≤ 40 | > 40 | 0.981 | 1.03 | 0.997 | 0.972 | 0.894 | – | –
2 | C[C@]12CCC3=C4CCC(=O)C=C4CC[C@H]3[C@@H]1CC[C@@]2(O)CC#N [Dienogest] | > 80 | > 80 | > 80 | > 80 | > 80 | > 80 | > 80 | > 80 | > 80 | > 80 | > 80 | > 80 | > 80 | > 80 | > 80 | > 80 | > 80 | > 80 | > 80 | > 80 | > 80 | > 80 | > 80 | > 80 | – | 0.994 | 0.987 | 1.01 | 0.995 | 0.975 | –
3 | COc1cccc2c1C(=O)c1c(O)c3c(c(O)c1C2=O)C[C@@](O)(C(=O)CO)C[C@@H]3O[C@H]1C[C@H](N)[C@H](O)[C@H](C)O1 [Doxorubicin] | ≤ 10 | ≤ 10 | > 160 | > 160 | > 160 | > 160 | > 160 | ≤ 5 | ≤ 20 | > 160 | ≤ 80 | > 160 | ≤ 40 | ≤ 160 | ≤ 20 | ≤ 40 | ≤ 40 | ≤ 40 | > 160 | > 160 | > 160 | ≤ 20 | > 160 | > 160 | – | – | 0.978 | 0.949 | 0.918 | 0.881 | 0.907
4 | CN[C@H](CC(C)C)C(=O)N[C@H]1C(=O)N[C@@H](CC(N)=O)C(=O)N[C@H]2C(=O)N[C@H]3C(=O)N[C@H](C(=O)N[C@H](C(=O)O)c4cc(O)cc(O)c4-c4cc3ccc4O)[C@H](O)c3ccc(c(Cl)c3)Oc3cc2cc(c3O[C@@H]2O[C@H](CO)[C@@H](O)[C@H](O)[C@H]2O[C@H]2C[C@](C)(N)[C@H](O)[C@H](C)O2)Oc2ccc(cc2Cl)[C@H]1O [Vancomycin] | < 1.25 | < 1.25 | > 160 | ≤ 10 | > 160 | > 160 | ≤ 2.5 | < 1.25 | < 1.25 | ≤ 160 | < 1.25 | ≤ 10 | < 1.25 | < 1.25 | < 1.25 | < 1.25 | < 1.25 | ≤ 2.5 | > 160 | > 160 | ≤ 40 | < 1.25 | ≤ 20 | > 160 | – | – | – | – | – | – | –
